Each structure is given as a SMILES string. Entries after “also recorded” stand apart in the source; their conditions may differ. Counter-ions that a name gives are not always drawn.

The subject of test [1] is SKOV3ip-GFP cells. The experiment in a line: Two-week intraperitoneal tumor growth model (tumor burden). The note with it: 1 mg/kg twice daily oral, 14 days, vs placebo. It is filed as in vivo, mice. The text has this:
For two-week tumor studies, 1 × 10^6 non-treated SKOV3ip-GFP cells were i.p. injected. All mice started R-ketorolac treatment one day prior to cell injection and continued treatment until conclusion of the study 14 days later. Mice were imaged using a Light Tools imaging system (Synopsys Optical Solutions, Westminster CO) with long pass GFP filters. Three images per mouse were captured to ensure all tumors were counted. Green fluorescent tumors were identified and counted in the peritoneal cavity as single tumors if there was a distinct border of non-fluorescent tissue. Tumor burden of the omentum occurred either as one large tumor or a bundle of tumors and was not included in the final analysis of tumor number. Total tumor counts from the peritoneal cavity were normalized to placebo treated animals within individual experiments. Blood was collected via cardiac puncture and ketorolac enantiomer concentrations were measured by HPLC analysis as described in Supplemental Methods (Additional File 1: Supplemental Methods). […]

For another test, the target named is T1, Rac1 (Homo sapiens, UniProt P63000).
T1 construct: Frozen tumor samples were lysed without thawing; from tissue; host or cells: peritoneal SKOV3ip-GFP xenograft tumours from treated mice
The experiment in a line: Flow cytometric GTPase effector binding assay in tumor lysates (Rac1). The class given is in vivo. The note with it: oral 1 mg/kg twice daily, 2 weeks; vs placebo. The procedure: (§1) GTPase effector binding assays were carried out according to the protocols described previously. Frozen tumor samples were lysed without thawing with the addition of RIPA lysis buffer with the following modifications (no β-glycerphosphate,1 mM NaF and protease, 1% (v/v) NP-40 (nonyl phenoxypolyethoxylethanol) inhibitors consisting 10 μg/ml each of chymostatin, leupeptin, pepstatin and antipain). Protein concentrations were determined using GLISA quick protein concentration kit and lysates were adjusted to uniform protein concentrations of 0.5 mg/ml. Insoluble debris was removed by centrifugation at 14,000 RPM in a cold microfuge and the supernatants were incubated with GTPase effector coated beads (PAK1-PBD for Cdc42 and Rac1) for 1 h at 4 °C with rotation. Primary antibodies directed against Cdc42 or Rac1 and secondary antibody Alexa 488 were incubated with the beads for 1 h. Fluorescence intensity MCF (mean channel fluorescence) was used to measure the amount of active intracellular GTPase. MCF was measured by flow cytometry (Accuri C6, BD Biosciences). GTPase activity was calculated as (MCFsample group – MCFunstimulated negative control) / MCFstimulated positive control.
Background: Flow cytometry measures light scatter and fluorescence of single cells or particles in a stream.

The target of another test is T2, Cdc42 (Homo sapiens, UniProt P60953).
T2 construct: Frozen tumor samples were lysed without thawing; from tissue; host or cells: peritoneal SKOV3ip-GFP xenograft tumours from treated mice
Kind of test: Flow cytometric GTPase effector binding assay in tumor lysates (Cdc42). The settings on record: oral 1 mg/kg twice daily, 2 weeks; vs placebo. It is filed as in vivo. As for the experimental part: as §1

Test [2] has as its system SKOV3ip-GFP cells. Kind of test: Measurement of omental weight. It is filed as in vivo, mice. The note with it: two-week tumor study, 1 mg/kg twice daily; no significant differences between groups. The source says:
page 1: SUPPLEMENTAL METHODS Cell Culture and Reagents SKOV3ip cells were modified to express GFP-Rac1 by transfection with pcDNA3-EGFP-Rac1- wt (Catalog # 12980, Addgene) as described for SKOV3ip-GFP cells under Methods. Rac1 overexpression quantification and verification was completed by western blot and qPCR. SKOV3ip-GFP and SKOV3ip-GFP-Rac1 cell populations were further enriched by flow sorting for GFP positive cells. SKOV3ip-GFP-Rac1 cell lines were maintained under the same selection as described for SKOV3ip-GFP cells (Methods). In vivo Drug Dosing Racemic (R-/S-) ketorolac tromethamine salt was purchased from Sigma (St. Louis MO, cat# K1136), S-ketorolac was purchased from Toronto Research Chemicals (Toronto Canada, cat# K235602) and dissolved in water or 100% ethanol, respectively . Mice received twice daily […] mg/kg of body weight. Measurement of Omental Weight Omental tissue was harvested and stored on ice in PBS for no more than 1 hour before analysis. Omenta were blotted dry on lab tissue and weight was measured using an analytical balance (Denver Instruments Company, A -160). There was a non-significant decreasing trend in omental weight for treated mice when compared to placebo mice ( Additional File 3: Table S1). […] Ketorolac was detected using a UV spectrometer set at UV310. […]

T2 sequence (P60953 whole entry): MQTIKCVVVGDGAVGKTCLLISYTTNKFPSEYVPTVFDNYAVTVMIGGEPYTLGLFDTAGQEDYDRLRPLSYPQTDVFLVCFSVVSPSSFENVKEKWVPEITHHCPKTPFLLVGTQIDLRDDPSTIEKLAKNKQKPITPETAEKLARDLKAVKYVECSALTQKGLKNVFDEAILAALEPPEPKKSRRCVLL

As for `O=C(c1ccccc1)c1ccc2n1CC[C@H]2C(=O)O` [R-ketorolac], the “Tumor burden (tumor implants within the peritoneal cavity)” value in the test on SKOV3ip-GFP cells [1] is given as “significantly fewer tumor implants; also recorded: significantly decreased tumor burden”. The “Rac1 GTPase activity in tumor lysates” value on Rac1 is listed as “significantly decreased”. Also, the “Cdc42 GTPase activity in tumor lysates” value at Cdc42 is reported as “significantly decreased”. Besides, in the test with SKOV3ip-GFP cells [2], the “Omental weight, Mean ± SD” value is on record as 0.059 ± 0.018 g.
In the case of `O=C(c1ccccc1)c1ccc2n1CCC2C(=O)O` (centres unmarked) [R−/S-ketorolac, ketorolac tromethamine salt], in the test with SKOV3ip-GFP cells [1] (listed as Racemic drug), the “Tumor burden (tumor implants within the peritoneal cavity)” value is “significantly decreased tumor burden”. Moreover, at Rac1, the “Rac1 GTPase activity in tumor lysates” value was “Inhibition of the target GTPases was evident”. For the same compound, at Cdc42, the “Cdc42 GTPase activity in tumor lysates” value is reported as “Inhibition of the target GTPases was evident”. The “Omental weight, Mean ± SD” value in the test with SKOV3ip-GFP cells [2] stood at 0.058 ± 0.026 g.

The record behind these values is article PMC7791840, “The R-enantiomer of ketorolac reduces ovarian cancer tumor burden in vivo” (BMC Cancer, 2021).
